From ChEMBL document CHEMBL1201862, “PubChem BioAssay data set” (2004) come the findings set out here.

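Five concentrations, 48 hours, 96-well plates. GI50 = concentration required for 50% inhibition of growth.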 The source made the active and inactive calls. Rule as the data show it: active = GI50 up to about 1.1 µM and inactive = higher.

Test systems include DLD-1; DMS-273; M19-MEL; RXF 631; SNB-78; XF498; DMS-114; HOP-18; T47D.
Holding throughout (test): NCI tumour cell line growth inhibition, 48 h

Consider `COC(=O)C(=O)C(C#N)c1ccc(Cl)c(Cl)c1` (stereo not given), for which the GI50 with DLD-1, in the experiment on DMS-273, with M19-MEL, in the experiment with RXF 631, in the experiment with SNB-78 and with XF498 was > 100 µM (inactive) in each case.

`Cn1c(=O)c(C2c3ccccc3Oc3c2c(=O)n(C)c2ccccc32)c(O)c2ccccc21` (stereo not given): the GI50 is 50.9 µM (inactive) in the experiment with DLD-1; 49.1 µM (inactive) with DMS-114; 68.7 µM (inactive) with DMS-273; > 100 µM (inactive) with HOP-18; > 100 µM (inactive) in the experiment on M19-MEL; 58.2 µM (inactive) with RXF 631. Moreover, the GI50 in the experiment on SNB-78 is 53.3 µM (inactive); in the experiment with XF498 it was 26.9 µM (inactive).

For `CC(C)(C)c1cc(CCC(=O)Nc2ccc(Cl)cc2Cl)nc(N)n1`, the GI50 in the experiment with DLD-1, in the experiment with DMS-114, in the experiment with HOP-18, with M19-MEL, in the experiment on RXF 631 and with SNB-78 was > 100 µM (inactive) each time.

Consider `O=C(/C=C/c1ccccc1F)c1ccc(Cl)c(Cl)c1`, for which the GI50 is 23.9 µM (inactive) with DLD-1; 24 µM (inactive) in the experiment on DMS-114; 35.1 µM (inactive) in the experiment on DMS-273; 16.4 µM (inactive) in the experiment on HOP-18; 24 µM (inactive) in the experiment with M19-MEL; > 53.7 µM (inactive) in the experiment on RXF 631. The GI50 was > 69.3 µM (inactive) with SNB-78 and 28.5 µM (inactive) in the experiment with XF498.

Regarding `C[C@]12CCCC(=O)C1(O)C[C@H](C(=O)O)CC2` (stereo not given in full), the GI50 with DLD-1, in the experiment on DMS-114, in the experiment on DMS-273, with HOP-18, in the experiment with M19-MEL and in the experiment with RXF 631 was > 100 µM (inactive) each time. In addition, in the experiment with XF498, the GI50 is > 100 µM (inactive).

As for `COc1cc(C2c3cc4c(cc3[C@@H](N(C)C)[C@H]3COC(=O)C23)OCO4)cc(OC)c1O` (stereo not given in full), the GI50 with DLD-1 was 41.9 µM (inactive); in the experiment with DMS-273 it was 32.5 µM (inactive); with RXF 631, 42.2 µM (inactive); with XF498 it was 45 µM (inactive).

Regarding `CC1Nc2ccccc2NC1C=C(C#N)C#N` (stereo not given), the GI50 in the experiment on DLD-1 is 14.4 µM (inactive); in the experiment with DMS-114, 19.8 µM (inactive); in the experiment with DMS-273, 12.2 µM (inactive); in the experiment with HOP-18, 20 µM (inactive); in the experiment on M19-MEL, 15 µM (inactive); with RXF 631, 11.9 µM (inactive). Moreover, the GI50 was 15.3 µM (inactive) in the experiment on SNB-78 and 17.1 µM (inactive) with XF498.

On to `c1ccc2c(c1)CCc1c(-c3ccncc3)n[nH]c1-2`, for which the GI50 was 41.9 µM (inactive) in the experiment on DLD-1; 17.2 µM (inactive) in the experiment with DMS-114; 22.9 µM (inactive) in the experiment with DMS-273; 21.4 µM (inactive) in the experiment on M19-MEL; > 10 µM (inactive) with RXF 631; 29.6 µM (inactive) in the experiment with SNB-78. Further, the GI50 in the experiment on XF498 is 0.583 µM (active).

As for `Cc1ccc(NC(=O)CC2SC(Nc3cccc(Cl)c3C)=NC2=O)cc1` (stereo not given), the GI50 is 48.8 µM (inactive) in the experiment on DLD-1; 29.9 µM (inactive) with DMS-114; > 100 µM (inactive) with DMS-273; 71 µM (inactive) with M19-MEL; > 100 µM (inactive) in the experiment on RXF 631; 60.7 µM (inactive) with SNB-78. The GI50 with XF498 is 46.2 µM (inactive).

On to `N#CC1([N+](=O)[O-])C=C1c1ccccc1` (stereo not given), for which the GI50 in the experiment with DLD-1 was 8.81 µM (inactive); in the experiment on DMS-114 it was 48.6 µM (inactive); in the experiment on DMS-273, > 100 µM (inactive); in the experiment with M19-MEL, 56.1 µM (inactive); with RXF 631, > 100 µM (inactive); with SNB-78, 81.5 µM (inactive).

As to `COC(=O)C1=C(CO)C2C=CC1C2` (stereo not given), the GI50 with DLD-1, with DMS-273, in the experiment on HOP-18, with M19-MEL, in the experiment with RXF 631 and in the experiment on SNB-78 was > 100 µM (inactive) each time. The GI50 in the experiment with XF498 is > 100 µM (inactive).

With `O=C1c2ccccc2C(=O)c2c(NCCCNCCO)ccc(NCCCNCCO)c21`, the GI50 in the experiment on DMS-114 was 6.01 µM (inactive); in the experiment on HOP-18, 5.01 µM (inactive); in the experiment on M19-MEL, 4.93 µM (inactive); in the experiment with RXF 631, 17.8 µM (inactive); in the experiment with SNB-78, 8.32 µM (inactive); in the experiment with T47D it was 8.91 µM (inactive). In addition, the GI50 in the experiment on XF498 was 4.67 µM (inactive).

Consider `OC1(c2ccccc2)OC(C#Cc2ccccc2)(c2ccccc2)c2ccccc21` (stereo not given), for which the GI50 in the experiment on DLD-1 was 3.06 µM (inactive); with DMS-114, 3.13 µM (inactive); with DMS-273, 3.4 µM (inactive); in the experiment on M19-MEL, 3.23 µM (inactive); with RXF 631, 3.13 µM (inactive); in the experiment with SNB-78 it was 6.98 µM (inactive). Moreover, the GI50 in the experiment on XF498 is 7.26 µM (inactive).

For the compound `COc1cc(C2c3cc4c(cc3[C@@H](Nc3ccc([N+](=O)[O-])cc3)C3COC(=O)[C@H]23)OCO4)cc(OC)c1O` (stereo not given in full), the GI50 is 1.52 µM (inactive) in the experiment with DMS-114; 0.555 µM (active) with DMS-273; 11.2 µM (inactive) in the experiment on HOP-18; 3.06 µM (inactive) with M19-MEL; 1.6 µM (inactive) in the experiment with RXF 631; 5.68 µM (inactive) with SNB-78. In the experiment on XF498, the GI50 is 2.07 µM (inactive).
